Measurements taken from PMC6816013 (Journal of Medicinal Chemistry, 2019).
“Also recorded” adds a separate entry of the source. Where a name gives a salt, the structure may show the parent alone. Read-outs that look alike come from different tables or passages of the source.

Legend:
Cell cytotoxicity assay = type: cell-based; details: for cytotoxicity/cell activity safety window: cytotoxicity EC50 / Pf EC50
HSA = HSA (Homo sapiens, UniProt P02768); assay: HSA binding (plasma protein binding); type: in vitro ADME
[1] = system: P. falciparum strain 3D7A; type: cell-based, Plasmodium falciparum
[2] = system: Plasmodium falciparum WT cell line; assay: Growth inhibition of P. falciparum WT cell line at 48 and 72 h; type: cell-based; details: read-out: Pf WT cell line EC50 72h
[3] = system: Plasmodium falciparum 3D7A; assay: microbe, parasite or virus in culture; details: read-out: Pf EC50
[4] = system: Plasmodium falciparum 3D7A; details: read-out: Pf EC50; 3D7A asexual blood stage, 48 h [3H]-hypoxanthine assay, maximal concentration 5 μM
[5] = ChromlogD
[6] = aqueous solubility
[7] = target: T1, serine/arginine protein kinase 2 (SRPK2 or CLK2) (Plasmodium falciparum, UniProt Q8IL41); assay: Kinobeads competition binding in P. falciparum extract; details: Figure 4a, read-out: Kd^app SRPK2
T1 sequence (Q8IL41 1-1268): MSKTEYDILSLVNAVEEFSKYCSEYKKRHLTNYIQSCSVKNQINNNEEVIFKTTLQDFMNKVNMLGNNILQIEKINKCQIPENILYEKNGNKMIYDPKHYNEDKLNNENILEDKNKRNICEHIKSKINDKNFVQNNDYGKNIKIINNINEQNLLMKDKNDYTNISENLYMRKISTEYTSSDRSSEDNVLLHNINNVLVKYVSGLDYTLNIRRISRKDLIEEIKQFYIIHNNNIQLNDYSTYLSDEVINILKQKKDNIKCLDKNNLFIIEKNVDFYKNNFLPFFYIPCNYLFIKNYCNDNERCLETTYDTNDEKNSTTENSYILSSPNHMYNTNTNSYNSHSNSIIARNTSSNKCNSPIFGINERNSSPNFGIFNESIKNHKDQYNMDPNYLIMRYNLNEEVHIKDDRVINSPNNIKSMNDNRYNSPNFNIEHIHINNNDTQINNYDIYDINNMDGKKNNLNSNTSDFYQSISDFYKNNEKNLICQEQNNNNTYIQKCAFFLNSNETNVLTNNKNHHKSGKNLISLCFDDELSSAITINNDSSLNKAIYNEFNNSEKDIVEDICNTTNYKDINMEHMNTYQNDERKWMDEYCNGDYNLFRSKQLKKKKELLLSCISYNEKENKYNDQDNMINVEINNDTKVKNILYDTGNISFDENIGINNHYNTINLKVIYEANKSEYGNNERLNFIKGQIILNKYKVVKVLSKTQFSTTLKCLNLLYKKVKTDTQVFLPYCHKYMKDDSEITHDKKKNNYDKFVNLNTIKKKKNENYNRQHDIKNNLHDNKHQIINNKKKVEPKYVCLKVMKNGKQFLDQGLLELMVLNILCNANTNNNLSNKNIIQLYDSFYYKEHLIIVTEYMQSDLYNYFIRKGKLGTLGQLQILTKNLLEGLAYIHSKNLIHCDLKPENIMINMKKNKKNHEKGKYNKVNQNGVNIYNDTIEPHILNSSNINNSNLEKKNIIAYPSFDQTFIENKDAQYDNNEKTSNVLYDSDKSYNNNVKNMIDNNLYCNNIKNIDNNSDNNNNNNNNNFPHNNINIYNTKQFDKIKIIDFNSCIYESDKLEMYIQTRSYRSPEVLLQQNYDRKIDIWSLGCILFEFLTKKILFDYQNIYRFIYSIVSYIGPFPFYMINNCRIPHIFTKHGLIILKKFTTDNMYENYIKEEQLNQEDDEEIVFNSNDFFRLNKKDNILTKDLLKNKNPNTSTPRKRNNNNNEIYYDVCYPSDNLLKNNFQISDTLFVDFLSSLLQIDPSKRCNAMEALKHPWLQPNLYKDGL

SRPK2 = target: T2, SRPK2 (Plasmodium falciparum, UniProt Q8IL41); assay: Pull down with compound 31 or 50 attached to beads, competition with free compound; type: binding; details: competed with free analogue, Figure 4b
T2 sequence (Q8IL41 1-1268): T1 sequence (Q8IL41 1-1268)

[8] = Intrinsic clearance in rat liver microsomes; type: in vitro ADME; details: 0.5 µM
[9] = PRR, 10 × EC50, result in words

HSA, sequence (P02768 25-609): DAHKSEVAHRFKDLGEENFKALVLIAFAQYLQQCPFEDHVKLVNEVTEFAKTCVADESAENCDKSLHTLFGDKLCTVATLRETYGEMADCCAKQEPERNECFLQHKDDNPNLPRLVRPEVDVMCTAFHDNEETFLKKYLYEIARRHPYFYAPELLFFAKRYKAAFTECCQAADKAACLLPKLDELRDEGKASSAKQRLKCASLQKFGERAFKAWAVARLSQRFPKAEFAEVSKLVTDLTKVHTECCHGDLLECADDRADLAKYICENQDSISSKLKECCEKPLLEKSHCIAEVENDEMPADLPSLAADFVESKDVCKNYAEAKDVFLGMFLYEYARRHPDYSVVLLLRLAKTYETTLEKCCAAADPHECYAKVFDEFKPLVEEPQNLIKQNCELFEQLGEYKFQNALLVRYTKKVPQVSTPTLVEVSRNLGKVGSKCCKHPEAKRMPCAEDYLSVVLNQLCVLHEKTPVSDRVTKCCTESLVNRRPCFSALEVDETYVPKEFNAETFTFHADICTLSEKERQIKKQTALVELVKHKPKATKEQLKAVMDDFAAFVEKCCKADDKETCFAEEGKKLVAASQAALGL

Question: What does the source list for `Cc1cc(Nc2nccc(-c3sc(C4CCNCC4)nc3-c3ccc(F)cc3)n2)ccn1` [Compound 31, 4-(4-(4-Fluorophenyl)-2-(piperidin-4-yl)thiazol-5-yl)-N-(2-methylpyridin-4-yl)pyrimidin-2-amine]?
Answer: cytotoxicity/cell activity safety window (Cell cytotoxicity assay): 25; HSA binding (HSA): 97.8%; rate of killing in PRR study [1, 9]: extremely fast-killing effect; AMP (Tables 2 and 5): 2.1e-06 cm/s

Question: With `Cc1cc(Nc2nccc(-c3sc(C4CCNCC4)nc3CN3CCCCC3)n2)ccn1` [Compound 60, N-(2-Methylpyridin-4-yl)-4-(4-(piperidin-1-ylmethyl)-2-(piperidin-4-yl)thiazol-5-yl)pyrimidin-2-amine Trihydrochloride] as the compound, how does the “cytotoxicity/cell activity safety window” value (Cell cytotoxicity assay) read?
Answer: 105

Question: What about the “rate of killing in PRR study” value [1, 9] of the same compound?
Answer: potent fast-killing properties

Question: With `O=C1C(O)=C([C@H]2CC[C@H](c3ccc(Cl)cc3)CC2)C(=O)c2ccccc21` [atovaquone] as the compound, how does the “rate of killing in PRR study” value [1, 9] read?
Answer: slow rate of killing

Question: Which HSA binding (HSA) does the source give for `CN1CCC(c2nc(-c3ccc(F)c(NS(C)(=O)=O)c3)c(-c3ccnc(NCC4CC4)n3)s2)CC1` [Compound 5, reference compound] here?
Answer: 91%

Question: And the “rate of killing in PRR study” value [1, 9]?
Answer: slow-acting compound; also recorded: slow parasite killing kinetics

Question: And the EC50 [2]?
Answer: 0.11 µM

Question: What about the AMP (Tables 1 and 4) of the same compound?
Answer: 3.4e-05 cm/s

Question: And the AMP (Tables 2 and 5)?
Answer: 3.4e-06 cm/s

Question: Which “rate of killing in PRR study” value [1, 9] does the source give for `CCc1nc(N)nc(N)c1-c1ccc(Cl)cc1` [pyrimethamine] here?
Answer: moderate rate of killing

Question: With `Cc1cc(Nc2nccc(-c3sc(C4CCNCC4)nc3-c3ccc(F)cc3)n2)on1` [Compound 22, N-(4-(4-(4-Fluorophenyl)-2-(piperidin-4-yl)thiazol-5-yl)pyrimidin-2-yl)-3-methylisoxazol-5-amine] as the compound, how does the HSA binding (HSA) read?
Answer: 94%

Question: And the AMP (Tables 2 and 5)?
Answer: 1.2e-06 cm/s

Question: With `Fc1ccc(-c2nc(C3CCNCC3)sc2-c2ccnc(Nc3ccccn3)n2)cc1` [Compound 25, 4-(4-(4-Fluorophenyl)-2-(piperidin-4-yl)thiazol-5-yl)-N-(pyridin-2-yl)pyrimidin-2-amine] as the compound, how does the HSA binding (HSA) read?
Answer: 94%

Question: And the AMP (Tables 2 and 5)?
Answer: 3.3e-06 cm/s

Question: With `Fc1ccc(-c2nc(C3CCNCC3)sc2-c2ccnc(Nc3nncs3)n2)cc1` [Compound 19, N-(4-(4-(4-Fluorophenyl)-2-(piperidin-4-yl)thiazol-5-yl)pyrimidin-2-yl)-1,3,4-thiadiazol-2-amine] as the compound, how does the HSA binding (HSA) read?
Answer: 92%

Question: What about the AMP (Tables 2 and 5) of the same compound?
Answer: < 1e-07 cm/s

Question: Which EC50 [3] does the source give for `Nc1nc(-c2ccc(F)cc2)c(-c2ccnc(Nc3ccc(N4CCOCC4)cc3)n2)s1` [Compound 13, 4-[2-Amino-4-(4-fluorophenyl)-1,3-thiazol-5-yl]-N-[4-(morpholin-4-yl)phenyl]pyrimidin-2-amine] here?
Answer: > 5 µM

Question: Which EC50 (Cell cytotoxicity assay) does the source give for “4-(4-(4-Fluorophenyl)-2-(piperidin-4-yl)thiazol-5-yl)-N-(1-(piperidin-4-yl)-1H-pyrazol-3-yl)pyrimidin-2-amine [Compound 24]” here?
Answer: 100 µM

Question: What about the HSA binding (HSA) of the same compound?
Answer: 93%

Question: And the EC50 [4]?
Answer: 3.31 µM

Question: What about the logD [5] of the same compound?
Answer: 1.29

Question: What about the Solubility [6] of the same compound?
Answer: 131 µM

Question: What about the AMP (Tables 2 and 5) of the same compound?
Answer: 3e-07 cm/s

Question: What does the source list for `Cc1nnc(Nc2nccc(-c3sc(C4CCNCC4)nc3-c3ccc(F)cc3)n2)s1` [Compound 20, N-(4-(4-(4-Fluorophenyl)-2-(piperidin-4-yl)thiazol-5-yl)pyrimidin-2-yl)-5-methyl-1,3,4-thiadiazol-2-amine]?
Answer: HSA binding (HSA): 92%; AMP (Tables 2 and 5): 8e-07 cm/s

Question: Which results are given for `Cc1csc(Nc2nccc(-c3sc(C4CCNCC4)nc3-c3ccc(F)cc3)n2)n1` [Compound 21, N-(4-(4-(4-Fluorophenyl)-2-(piperidin-4-yl)thiazol-5-yl)pyrimidin-2-yl)-4-methylthiazol-2-amine]?
Answer: HSA binding (HSA): 96%; AMP (Tables 2 and 5): 1.5e-06 cm/s

Question: For `Fc1ccc(-c2nc(C3CCNCC3)sc2-c2ccnc(NCCN3CCSCC3)n2)cc1` [Compound 50, 4-(4-(4-Fluorophenyl)-2-(piperidin-4-yl)thiazol-5-yl)-N-(2-thiomorpholinoethyl)pyrimidin-2-amine], which HSA binding (HSA) is on record?
Answer: 90%

Question: And the Kd [7]?
Answer: > 20 µM

Question: What about the “apparent Kd SRPK2 on immobilized compounds” value (SRPK2) of the same compound?
Answer: not bind to 50 attached to beads

Question: Which HSA binding (HSA) does the source give for `Cc1nccc(Nc2nccc(-c3sc(C4CCNCC4)nc3-c3ccc(F)cc3)n2)n1` [Compound 29, 4-[4-(4-Fluorophenyl)-2-(piperidin-4-yl)-1,3-thiazol-5-yl]-N-(2-methylpyrimidin-4-yl)pyrimidin-2-amine] here?
Answer: 91%

Question: And the AMP (Tables 2 and 5)?
Answer: 1.8e-06 cm/s

Question: Which HSA binding (HSA) does the source give for `OC(CNc1nccc(-c2sc(C3CCNCC3)nc2-c2ccc(F)cc2)n1)c1ccncc1` (stereo not drawn) [Compound 40, 2-({4-[4-(4-Fluorophenyl)-2-(piperidin-4-yl)-1,3-thiazol-5-yl]pyrimidin-2-yl}amino)-1-(pyridin-4-yl)ethanol] here?
Answer: 85%

Question: What about the AMP (Tables 2 and 5) of the same compound?
Answer: 1e-07 cm/s

Question: And the EC50 [3]?
Answer: 1.05 µM

Question: For `Nc1nccc(-c2sc(C3CCNCC3)nc2-c2ccc(F)cc2)n1` [Compound 41, 4-[4-(4-Fluorophenyl)-2-(piperidin-4-yl)-1,3-thiazol-5-yl]pyrimidin-2-amine], which HSA binding (HSA) is on record?
Answer: 75%

Question: And the AMP (Tables 1 and 4)?
Answer: 1.3e-05 cm/s

Question: Which “rate of killing in PRR study” value [1, 9] does the source give for `C[C@H]1[C@H](OC(=O)CCC(=O)O)O[C@@H]2O[C@@]3(C)CC[C@H]4[C@H](C)CC[C@@H]1[C@@]24OO3` [artesunate] here?
Answer: fast rate of killing

Question: For `Fc1ccc(-c2nc(C3CCNCC3)sc2-c2ccnc(Nc3cccnn3)n2)cc1` [Compound 27, N-(4-(4-(4-Fluorophenyl)-2-(piperidin-4-yl)thiazol-5-yl)pyrimidin-2-yl)pyridazin-3-amine], which HSA binding (HSA) is on record?
Answer: 90%

Question: What about the AMP (Tables 2 and 5) of the same compound?
Answer: 1.9e-06 cm/s

Question: With `Cc1cc(Nc2nccc(-c3sc(C4CCNCC4)nc3C3CC3)n2)ccn1` [Compound 59, 4-(4-Cyclopropyl-2-(piperidin-4-yl)thiazol-5-yl)-N-(2-methylpyridin-4-yl)pyrimidin-2-amine Dihydrochloride] as the compound, how does the Cl rat [8] read?
Answer: 1.8 mL/min/g

Question: And the “rate of killing in PRR study” value [1]?
Answer: potent fast-killing properties

Question: And the AMP (PAMPA)?
Answer: 1.8

Question: Which results are given for `CN1CCN(c2ccc(Nc3nccc(-c4sc(C5CCNCC5)nc4-c4ccc(F)cc4)n3)cc2)CC1` [Compound 7, reference compound]?
Answer: cytotoxicity/cell activity safety window (Cell cytotoxicity assay): 5.4; HSA binding (HSA): 97%
